In article PMC11623267, “Inhibitors of malaria parasite cyclic nucleotide phosphodiesterases block asexual blood-stage development and mosquito transmission” (Science Advances, 2024):
Read-outs that look alike come from different tables or passages of the source.

How the values were obtained:
[1] = tested on: cGMP-PDE activity in gametocyte lysates (PDEα, PDEδ); test: cGMP hydrolysis SPA in stage IV/V gametocyte membrane lysates; type: biochemical, Plasmodium falciparum; conditions: gametocyte lysate; geometric mean ×/÷ geometric SD
Protocol: cGMP signaling is known to play an essential role in gametogenesis in Plasmodium ([19], [20], [28]). We therefore tested the effects of all newly synthesized analogs for their ability to inhibit cGMP hydrolysis in crude gametocyte membrane preparations. […] S5A. These findings were also consistent with our enzyme-linked immunosorbent assay (ELISA)–based measurement of elevated cGMP levels in gametocytes following incubation with an example of each subseries (Fig. 2A). […] The levels of cAMP detected in gametocytes were similar in dimethyl sulfoxide (DMSO)–, XA-, and inhibitor-treated samples, and we could detect little or no cAMP hydrolysis in mature gametocytes (fig. S5B). […]
The cyclic nucleotide hydrolytic activity of membrane-associated parasite PDE enzymes was measured by a scintillation proximity assay (SPA) ([18]) using lysates of mature P. falciparum schizonts or stage IV/V gametocytes. […] The IC50 values for the compounds were determined using threefold serial dilutions in duplicate. […] The reactions were terminated by addition of 25 μl of PDE SPA beads (PerkinElmer, RPNQ0150), and after 20 min of incubation at room temperature, scintillation was measured using a Wallac 1450 Microbeta Counter (PerkinElmer) for 30 s. […]

HepG2 cells = test: HepG2 cytotoxicity; type: cell-based
Text: Table 1. Key activity data for the three main chemical subseries against ABS parasites, parasite fractions, and HepG2 cells. ND, not determined; ×/÷ is the geometric mean with geometric SD. | column: HepG2 EC50 (nM) (selectivity index)

[2] = tested on: P. falciparum clinical isolates from Tororo and Busia Districts of Uganda; test: Ex vivo 72-hour SYBR Green assay, Ugandan clinical isolates; type: cell-based, Plasmodium falciparum; conditions: 47 Ugandan isolates
Text: Clinical isolates were from the Tororo District of Uganda, located in the central-eastern part of the county near the Kenya border. Tororo and surrounding areas have high-intensity, year-round malaria transmission. […] Patients reporting use of antimalarial treatment within the previous 30 days or with evidence of an infection with other Plasmodium species were excluded. Informed consent was obtained from patients and/or primary care givers (depending on age); children aged 8 to 17 years provided assent. Two to 5 ml of blood was collected by venipuncture in a heparin tube. Samples were delivered to the adjacent IDRC laboratory at Tororo District Hospital or transported by car from Masafu Hospital on the day of collections for storage of blood spots on filter paper (for isolation of nucleic acids) and initiation of ex vivo culture of malaria parasites. Treatment involved a standard therapeutic regimen for uncomplicated falciparum malaria, which was a 3-day course of the artemisinin-based combination therapy (ACT), artemether-lumefantrine. In Uganda, at the time of sampling, there was widespread resistance to the antifolate drugs due to mutant pfdhfr/pfdhps alleles. […] Chloroquine was prepared at 10 mM in water. Stock solutions were stored at −20°C. Working solutions were freshly prepared from a single aliquot within 4 hours of the susceptibility test and stored at 4°C.
(§1) Samples were delivered to the adjacent IDRC laboratory at Tororo District Hospital or transported by car from Masafu Hospital on the day of collection for storage of blood spots on filter paper (for isolation of nucleic acids) and initiation of ex vivo culture of malaria parasites. […] Before assay, 10 mM antimalarial stock compounds were diluted as necessary in DMSO and stored at −20°C. […] Compounds were serially diluted threefold in a 96-well assay plate in complete medium to a final volume of 50 μl, in columns 1 to 10, with concentrations optimized to capture full dose-response curves. Column 11 contained compound-free controls, while column 12 contained uninfected human RBC controls. Parasite culture (150 μl) was added to columns 1 to 11 of the assay plate with a final volume of 200 μl per well, 0.2% parasitemia, and 2% hematocrit. […] Thawed plates were incubated with SYBR Green lysis buffer for 1 hour in the dark as previously reported ([62]). Fluorescence was quantified using a BMG Fluostar Optima plate reader at an excitation of 485 nm and an emission of 530 nm, and data were plotted using GraphPad Prism 7. The data were curve fit with a variable slope function to estimate IC50 values. For each isolate, a Z′ factor to assess assay quality was calculated from positive controls (eight drug-free wells) and negative controls (eight parasite-free, red cell control wells). Z′ values over 0.5 were considered good assays, but each curve was also examined by eye for suitability. Some assays with Z′ below 0.5 may be considered valid depending on factors such as the SE of the curve-fit IC50.

P. falciparum 3D7 = test: Ex vivo 72-hour SYBR Green assay, 3D7 control (Uganda); type: cell-based, Plasmodium falciparum; conditions: Ugandan ex vivo assay control; read-out: EC50 lab strain 3D7
Protocol: as §1

P. falciparum Dd2 = test: Ex vivo 72-hour SYBR Green assay, Dd2 control (Uganda); type: cell-based, Plasmodium falciparum; conditions: Ugandan ex vivo assay control; read-out: EC50 lab strain Dd2
Protocol: as §1

## CCNC(=O)c1cnc(OCC(C)C)c(-c2nc3c(C(C)C)n[nH]c3c(=O)[nH]2)c1 [SAL-0010333]
[1]
  IC50: 0.0772 ± 0.0018 µM
HepG2 cells
  EC50: > 25 µM
[2]; read-out: EC50 clinical isolates, Gmean (geometric mean)
  EC50: 0.167 µM
[2]; read-out: EC50 clinical isolates, Median
  EC50: 0.16 µM
P. falciparum 3D7
  EC50: 0.223 µM
P. falciparum Dd2
  EC50: 0.181 µM
